Reference: patent US7550456B2, “Substituted aryl cycloalkanoyl derivatives and methods of their use” (Wyeth, priority 2003, dated 2009)
Counter-ions that a name gives are not always drawn.

Biological target: T1, human hNET (Homo sapiens, UniProt P23975)
T1 construct: expressed in transfected cells; host or cells: MDCK-Net6 (MDCK cells, stably transfected)
Assay: Norepinephrine (NE) uptake assay in MDCK-Net6 cells
Type: cell-based
Conditions: 1 μM test compound, [3H]NE uptake, read-out: % Inhibition @ 1 μM (hNET)
Description: Cells were plated at 300,000/T75 flask and cells were split twice weekly. […] Cells were plated at 250,000 cells/T75 flask and split twice weekly.
Norepinephrine (NE) Uptake Assay
On day 1, cells were plated at 3,000 cells/well in growth medium and maintained in a cell incubator (37° C., 5% CO2). On day 2, growth medium was replaced with 200 μl of assay buffer (25 mM HEPES; 120 mM NaCl; 5 mM KCl; 2.5 mM CaCl2; 1.2 mM MgSO4; 2 mg/ml glucose (pH 7.4, 37° C.)) containing 0.2 mg/ml ascorbic acid and 10 μM pargyline. Plates containing cells with 200 μl of assay buffer were equilibrated for 10 minutes at 37° C. prior to addition of compounds. A stock solution of desipramine was prepared in DMSO (10 mM) and delivered to triplicate wells containing cells for a final test concentration of 1 μM. Data from these wells were used to define non-specific NE uptake (minimum NE uptake). Test compounds were prepared in DMSO (10 mM) and diluted in assay buffer according to test range (1 to 10,000 nM). Twenty-five microliters of assay buffer (maximum NE uptake) or test compound were added directly to triplicate wells containing cells in 200 μl of assay buffer. The cells in assay buffer with test compounds were incubated for 20 minutes at 37° C. […] The reaction was terminated by decanting the supernatant from the plate. The plates containing cells were washed twice with 200 μl assay buffer (37° C.) to remove free radioligand. The plates were then inverted, left to dry for 2 minutes, then reinverted and air-dried for an additional 10 minutes. The cells were lysed in 25 μl of 0.25 N NaOH solution (4° C.), placed on a shake table and vigorously shaken for 5 minutes. After cell lysis, 75 μl of scintillation cocktail was added to each well and the plates were sealed with film tape. The plates were returned to the shake table and vigorously shaken for a minimum of 10 minutes to ensure adequate partitioning of organic and aqueous solutions. The plates were counted in a Wallac Microbeta counter (PerkinElmer) to collect the raw cpm data.
For each experiment, a data stream of cpm values collected from the Wallac Microbeta counter was downloaded to a Microsoft Excel statistical application program. Calculations of EC50 values were made using the transformed-both-sides logistic dose response program written by Wyeth Biometrics Department.

T1 sequence (P23975 whole entry): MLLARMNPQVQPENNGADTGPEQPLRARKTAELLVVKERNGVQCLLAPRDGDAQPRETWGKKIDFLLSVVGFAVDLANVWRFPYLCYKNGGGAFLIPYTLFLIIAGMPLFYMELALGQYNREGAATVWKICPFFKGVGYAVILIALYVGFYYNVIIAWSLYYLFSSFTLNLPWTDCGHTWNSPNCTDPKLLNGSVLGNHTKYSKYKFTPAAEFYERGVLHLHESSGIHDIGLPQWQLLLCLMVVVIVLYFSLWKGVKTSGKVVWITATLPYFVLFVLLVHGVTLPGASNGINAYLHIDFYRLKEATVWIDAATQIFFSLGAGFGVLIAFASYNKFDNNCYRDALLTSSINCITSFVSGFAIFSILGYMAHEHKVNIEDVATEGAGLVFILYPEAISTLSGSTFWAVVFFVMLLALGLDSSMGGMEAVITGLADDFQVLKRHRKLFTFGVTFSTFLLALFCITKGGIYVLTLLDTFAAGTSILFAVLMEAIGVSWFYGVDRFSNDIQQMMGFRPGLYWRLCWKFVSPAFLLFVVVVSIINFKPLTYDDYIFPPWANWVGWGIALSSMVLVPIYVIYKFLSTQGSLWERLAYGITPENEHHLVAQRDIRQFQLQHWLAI

First: C[C@@H]1CN(C[C@H](c2cccc(OC(F)(F)F)c2)C2(O)CCCCC2)C[C@H](C)N1 [Example 367, 1-{(1S)-2-[(3R,5S)-3,5-dimethylpiperazin-1-yl]-1-[3-(trifluoromethoxy)phenyl]ethyl}cyclohexanol dihydrochloride]
Second: CC1(C)CCCC1(O)C(CN1CCNCC1)c1cccc(OC(F)(F)F)c1 (centres unmarked) [Example 396, 2,2-dimethyl-1-{2-piperazin-1-yl-1-[3-(trifluoromethoxy)phenyl]ethyl}cyclopentanol dihydrochloride]
The inhibition at 1 µM of the first is higher: 94% for the first, 33% for the second.

First: OC1(C(CN2CCNCC2)c2ccc(OCCc3ccccc3)c(Cl)c2)CCCCC1 (centres unmarked) [Example 452, 1-{1-[3-chloro-4-(2-phenylethoxy)phenyl]-2-piperazin-1-ylethyl}cyclohexanol dihydrochloride]
Second: OC1(C(CN2CCNCC2)c2ccc(OCc3ccccc3)c(Cl)c2)CCCCC1 (centres unmarked) [Example 292, 1-{1-[4-(benzyloxy)-3-chlorophenyl]-2-piperazin-1-ylethyl}cyclohexanol dihydrochloride]
The inhibition at 1 µM of the first is lower: 35% for the first, 89% for the second.

Going from `OC1(C(CN2CCNCC2)c2ccc(OCc3ccc(C(F)(F)F)cc3)c(Cl)c2)CCCCC1` (centres unmarked) [Example 419, 1-[1-(3-chloro-4-{[4-(trifluoromethyl)benzyl]oxy}phenyl)-2-piperazin-1-ylethyl]cyclohexanol dihydrochloride] to `CN1CCN(CC(c2ccc(OCc3ccc(C(F)(F)F)cc3)c(F)c2)C2(O)CCCCC2)CC1` (centres unmarked) [Example 416, 1-[1-(3-fluoro-4-{[4-(trifluoromethyl)benzyl]oxy}phenyl)-2-(4-methylpiperazin-1-yl)ethyl]cyclohexanol dihydrochloride], the inhibition at 1 µM rises from 46% to 91%.

Going from `COc1cc(C(CN2CCNCC2)C2(O)CCCCC2)ccc1OCc1ccc2ccccc2c1` (centres unmarked) [Example 444, 1-{1-[3-methoxy-4-(2-naphthylmethoxy)phenyl]-2-piperazin-1-ylethyl}cyclohexanol dihydrochloride] to `COc1ccc(-c2cccc(C(CN3CCNCC3)C3(O)CCCCC3)c2)cc1OC` (centres unmarked) [Example 250, 1-[1-(3′,4′-dimethoxy-1,1′-biphenyl-3-yl)-2-piperazin-1-ylethyl]cyclohexanol dihydrochloride], the inhibition at 1 µM falls from 98% to 15%.

First: OC1(C(CN2CCNCC2)c2ccc(-c3ccccc3Cl)cc2)CCCCC1 (centres unmarked) [Example 165, 1-[1-(2′-chloro-1,1′-biphenyl-4-yl)-2-piperazin-1-ylethyl]cyclohexanol dihydrochloride]
Second: OC1(C(CN2CCNCC2)c2ccc(-c3ccc(Cl)cc3)cc2)CCCCC1 (centres unmarked) [Example 172, 1-[1-(4′-chloro-1,1′-biphenyl-4-yl)-2-piperazin-1-ylethyl]cyclohexanol dihydrochloride]
The inhibition at 1 µM of the first is lower: 13% for the first, 55% for the second.

Compared with `CN1CCN(CC(c2ccc(Oc3cccc4ccccc34)cc2)C2(O)CCCCC2)CC1` (centres unmarked) [Example 399, 1-{2-(4-methylpiperazin-1-yl)-1-[4-(1-naphthyloxy)phenyl]ethyl}cyclohexanol dihydrochloride], `CN1CCN(CC(c2ccc(-c3ccc(F)cc3)cc2)C2(O)CCCCC2)CC1` (centres unmarked) [Example 180, 1-[1-(4′-fluoro-1,1′-biphenyl-4-yl)-2-(4-methylpiperazin-1-yl)ethyl]cyclohexanol dihydrochloride] is higher in inhibition at 1 µM: 17% for the first, 47% for the second.

First: OC1([C@@H](CN2CCNCC2)c2cccc(Oc3ccccc3)c2)CCCCC1 (single isomer, unassigned) [Example 358, dihydrochloride]
Second: OC1([C@H](CN2CCNCC2)c2cccc(Oc3ccccc3)c2)CCCCC1 (single isomer, unassigned) [Example 357, dihydrochloride]
The inhibition at 1 µM of the first is lower: 73% for the first, 87% for the second.

First: OC1(C(CN2CCN(CC3CCCCC3)CC2)c2ccc(Oc3ccccc3)cc2)CCCCC1 (centres unmarked) [Example 309, 1-[2-[4-(cyclohexylmethyl)piperazin-1-yl]-1-(4-phenoxyphenyl)ethyl]cyclohexanol dihydrochloride]
Second: OC1(C(CN2CCNCC2)c2ccc(-c3cccc(F)c3)cc2)CCCCC1 (centres unmarked) [Example 166, 1-[1-(3′-fluoro-1,1′-biphenyl-4-yl)-2-piperazin-1-ylethyl]cyclohexanol dihydrochloride]
The inhibition at 1 µM of the first is lower: 19.7% for the first, 48% for the second.

Compared with `OC1(C(CN2CCNCC2)c2ccc(-c3cccc(OC(F)(F)F)c3)cc2)CCC1` (centres unmarked) [Example 183, 1-{2-piperazin-1-yl-1-[3′-(trifluoromethoxy)-1,1′-biphenyl-4-yl]ethyl}cyclobutanol dihydrochloride], `OC1(C(CN2CCNCC2)c2ccc(OC(F)(F)F)cc2)CCC1` (centres unmarked) [Example 304, 1-{2-piperazin-1-yl-1-[4-(trifluoromethoxy)phenyl]ethyl}cyclobutanol dihydrochloride] is higher in inhibition at 1 µM: 16% for the first, 41% for the second.

Compared with `CN1CCN(CC(c2ccc(-c3ccc(Cl)c(Cl)c3)cc2)C2(O)CCC2)CC1` (centres unmarked) [Example 296, 1-[1-(3′,4′-dichloro-1,1′-biphenyl-4-yl)-2-(4-methylpiperazin-1-yl)ethyl]cyclobutanol dihydrochloride], `COc1ccc(C(CN2CCNCC2)C2(O)CCCCC2)cc1-c1ccc(Cl)c(Cl)c1` (centres unmarked) [Example 252, 1-[1-(3′,4′-dichloro-6-methoxy-1,1′-biphenyl-3-yl)-2-piperazin-1-ylethyl]cyclohexanol dihydrochloride] is higher in inhibition at 1 µM: 13% for the first, 35% for the second.

First: CN1CCN(CC(c2ccc(OCc3ccc(Br)cc3F)c(Cl)c2)C2(O)CCCCC2)CC1 (centres unmarked) [Example 426, 1-[1-{4-[(4-bromo-2-fluorobenzyl)oxy]-3-chlorophenyl}-2-(4-methylpiperazin-1-yl)ethyl]cyclohexanol dihydrochloride]
Second: OC1(C(CN2CCNCC2)c2ccc(OCc3ccc(Br)cc3F)c(Cl)c2)CCCCC1 (centres unmarked) [Example 425, 1-(1-{4-[(4-bromo-2-fluorobenzyl)oxy]-3-chlorophenyl}-2-piperazin-1-ylethyl)cyclohexanol dihydrochloride]
The inhibition at 1 µM of the first is higher: 84% for the first, 80% for the second.

First: CN1CCN(CC(c2cc(Br)c(OCc3ccccc3)c(Br)c2)C2(O)CCCCC2)CC1 (centres unmarked) [Example 393, 1-[1-[4-(benzyloxy)-3,5-dibromophenyl]-2-(4-methylpiperazin-1-yl)ethyl]cyclohexanol dihydrochloride]
Second: COc1cccc(COc2ccc(C(CN3CCN(C)CC3)C3(O)CCCCC3)cc2Cl)c1 (centres unmarked) [Example 455, 1-[1-{3-chloro-4-[(3-methoxybenzyl)oxy]phenyl}-2-(4-methylpiperazin-1-yl)ethyl]cyclohexanol dihydrochloride]
The inhibition at 1 µM of the first is lower: 59% for the first, 99% for the second.

Going from `CCOc1ccc(C(CN2CCN(C)CC2)C2(O)CCCCC2)cc1OC(F)(F)F` (centres unmarked) [Example 405, 1-[1-[4-ethoxy-3-(trifluoromethoxy)phenyl]-2-(4-methylpiperazin-1-yl)ethyl]cyclohexanol dihydrochloride] to `COc1cc(C(CN2CCN(C)CC2)C2(O)CCCCC2)ccc1OCc1ccc(C(F)(F)F)cc1` (centres unmarked) [Example 449, 1-[1-(3-methoxy-4-{[4-(trifluoromethyl)benzyl]oxy}phenyl)-2-(4-methylpiperazin-1-yl)ethyl]cyclohexanol dihydrochloride], the inhibition at 1 µM rises from 27% to 88%.

For `N#Cc1cccc(C(CN2CCNCC2)C2(O)CCCCC2)c1` (centres unmarked) [Example 160, 1-[1-(3-cyanophenyl)-2-piperazin-1-ylethyl]cyclohexanol dihydrochloride], the inhibition at 1 µM was 50%.

Same assay, conditions: MDCK-Net6, read-out: % Inhibition @ 1 μM (hNET), 1 μM test compound, [3H]NE uptake

Going from `OC1(C(CN2CCNCC2)c2cccc(OC(F)(F)F)c2)CCCCC1` (centres unmarked) [Example 23, 1-{2-piperazin-1-yl-1-[3-(trifluoromethoxy)phenyl]ethyl}cyclohexanol dihydrochloride] to `CN1CCN(C[C@@H](c2cccc(OC(F)(F)F)c2)C2(O)CCCCC2)CC1` [Example 246, 1-{(1R)-2-(4-methylpiperazin-1-yl)-1-[3-(trifluoromethoxy)phenyl]ethyl}cyclohexanol dihydrochloride], the inhibition at 1 µM falls from 85% to 7.4%.

Same assay, conditions: [3H]NE uptake, test range 1 to 10,000 nM

Compared with `OC1(C(CN2CCNCC2)c2cccc(OC(F)(F)F)c2)CCCCC1` (centres unmarked) [Example 23, 1-{2-piperazin-1-yl-1-[3-(trifluoromethoxy)phenyl]ethyl}cyclohexanol dihydrochloride], `CN1CCN(C[C@@H](c2ccc(OCc3ccccc3)cc2)C2(O)CCCCC2)CC1` [Example 412, 1-[(2R)-1-[4-(benzyloxy)phenyl]-2-(4-methylpiperazin-1-yl)ethyl]cyclohexanol dihydrochloride] is 2.5-fold lower in EC50: 350 nM for the first, 138 nM for the second.

Compound `CN1CCN(C[C@H](c2ccc(OCc3ccccc3)cc2)C2(O)CCCCC2)CC1` [Example 411, 1-[(2S)-1-[4-(benzyloxy)phenyl]-2-(4-methylpiperazin-1-yl)ethyl]cyclohexanol dihydrochloride] has an EC50 of 483 nM.
